Reference: US8507498B2, “4, 6-disubstituted aminopyrimidine derivatives as inhibitors of protein kinases” (Ingenium Pharmaceuticals GmbH, priority 2007, dated 2013)
“Also recorded” adds a separate entry of the source.

Tests used:
[1] = tested on: TNFα expression in LPS-induced THP-1 macrophages; assay: In vitro THP-1 assay, TNFα ELISA; type: cell-based, human; conditions: 0.5 to 5 μM, 60 min pre-incubation, vs DMSO
Procedure: (§1) THP-1 cells are grown in modified RPMI-1640 medium (ATCC, Cat. No. 30-2001) supplemented with 10% FCS and 1% Pen/Strep. For cytokine inhibition assays, cells are seeded at a density of 5×10^5 cells/ml into 6-well plates in standard growth medium supplemented with 100 ng/ml PMA (Sigma, P1585) to induce differentiation into macrophage-like cells. After 24 hours, the medium is replaced with standard growth medium (without PMA) and the cells are incubated for another 48 hours to complete differentiation. […] Cells are incubated for 60 min with compounds prior to stimulation with 100 ng/ml LPS (Sigma, L2630) for another 4-48 hours. Supernatants are collected and assayed immediately for cytokine expression, e.g. for TNFα, IL-6 and IL-1b using commercially available sandwich ELISA assays (eBioscience, Cat. No 88-7346, 88-7066, 88-7010) or kept frozen at […] until evaluation. Concentrations of TNFα, IL6 and IL1β within the cell culture supernatants are measured by using commercial ELISA Kits (eBioscience) according to the manufacturer's instructions. CDK-inhibitory compounds # 1, 2, 3, 5, 16, 18, 19 and 32 were administered to differentiated THP-1 cells in triplicates as described above (see section 2.). After 60 min of pre-incubation with test or reference compound (SB203580, a p38 inhibitor and BMS345541, an IKK-inhibitor) alone, cells were stimulated with LPS. After incubation for 4-48 h, supernatants were collected and ELISA based determinations of cytokine supernatant concentrations were performed as described in section 3, supra.

[2] = tested on: IL6 expression in LPS-induced THP-1 macrophages; assay: In vitro THP-1 assay, IL6 ELISA; type: cell-based, human; conditions: 0.5 to 5 μM, 60 min pre-incubation, vs DMSO
Procedure: as §1

TNFα = assay: LPS in vivo assay, serum TNF alpha ELISA; conditions: LPS mice, 10 or 30 mg/kg single p.o. 30 min prior to LPS, blood 90 min after LPS, vs vehicle
Procedure: (§2) For the LPS induced model of septic shock, mice receive an intraperitoneal (i.p.) injection of 30 μg bacterial Lipopolysaccharide (LPS; L2630 SIGMA) in saline. Said LPS-mediated initiation of the inflammatory signalling cascade results in increasing blood serum concentrations of cytokines such as e.g. TNFα, IL-6 and IL1β. Blood can be taken from these animals at defined time points. Thereafter, serum will be separated and the samples can be stored at −80° C. until cytokine concentrations are measured using commercial ELISA assays. (AL Moreira et al., Braz J Med Biol Res 1997; 30:1199-1207).
(§3) Wildtype mice (strain C3HeB/FeJ) (age, sex and weight matched) were injected with 30 μg LPS (SIGMA) intraperitoneally. 90 minutes after LPS administration these animals were anaesthetized with 0.1 ml/10 g bodyweight Ketamine-Rompun (50/20 mg/ml) and blood for serum preparation was taken via cardiac puncture.
(§4) Pharmacological treatment groups (n=4) of LPS mice received per os (p.o.) injections of CDK-inhibiting compounds or the vehicle (negative control), respectively. In particular, compounds 1, 5, 10, and 84 were administered.
(§5) 10 or 30 mg/kg (compound per bodyweight) of a CDK inhibitor, dissolved in 20% DMSO, 5% Tween 80, 10% Tris 1M pH8, 20% PEG400, 45% PBS was administered as a single p.o. dosage 30 min prior to LPS stimulation. Vehicle control was administered in the same manner.
(§6) 90 minutes (min) after LPS stimulation, blood samples were taken from the mice. Previously, the 90 min time point had been identified as the peak of TNF alpha expression in this animal model by a time course experiment.
(§7) Blood samples (˜500 μl/animal) from the LPS animals were incubated on wet ice for 30 min after cardiac puncture. Afterwards the samples were centrifuged for 15 min at 13.000 rpm. Serum was separated from the clot and stored frozen at −80° C.
(§8) Serum concentrations of TNF alpha and IL6 within the samples were measured by using commercial ELISA Kits (Natutec) according to the manufacturers instructions.

IL6 = assay: LPS in vivo assay, serum IL6 ELISA; conditions: LPS mice, 10 or 30 mg/kg single p.o. 30 min prior to LPS, blood 90 min after LPS, vs vehicle
Procedure: as §2, §3, §4, §5, §6, §7, §8

Row | Structure (SMILES) | inhibition of TNFα expression in the supernatant [1] | inhibition of IL6 expression in the supernatant [2] | melting point [°C] | also measured
1 | NS(=O)(=O)Cc1cccc(Nc2cc(-c3ccccc3OCc3ccccc3)ncn2)c1 [Compound 32, {3-[6-(2-Benzyloxy-phenyl)-pyrimidin-4-ylamino]-phenyl}-methanesulfonamide] | significant inhibitory effect; also recorded: significant inhibition | significant inhibitory effect; also recorded: significant inhibition | – | –
2 | CCCS(=O)(=O)Nc1cc(Nc2cc(-c3cccc([N+](=O)[O-])c3)ncn2)ccc1C | – | – | 202 to 203.5 | –
3 | CS(=O)(=O)c1cccc(Nc2cc(-c3ccccc3OCc3ccccc3)ncn2)c1 [Reference Example 51, [6-(2-benzyloxy-phenyl)-pyrimidin-4-yl]-(3-methanesulfonyl-phenyl)-amine] | – | – | 199 to 205 | –
4 | CCOc1ccccc1-c1cc(Nc2cccc(CS(N)(=O)=O)c2)ncn1 [Compound 1, {3-[6-(2-Ethoxy-phenyl)-pyrimidin-4-ylamino]-phenyl}-methanesulfonamide] | significant inhibitory effect; also recorded: significant inhibition | significant inhibitory effect; also recorded: significant inhibition | 236.3 to 238.6 | TNFα protein concentration in the blood serum (TNFα): significant repressive effect; IL6 protein concentration in the blood serum (IL6): significant repressive effect
5 | CCOc1ccccc1-c1cc(Nc2cccc(CS(=O)(=O)NC(C)(C)C)c2)ncn1 [Compound 19, N-tert-Butyl-C-{3-[6-(2-ethoxy-phenyl)-pyrimidin-4-ylamino]-phenyl}-methanesulfonamide] | significant inhibitory effect; also recorded: significant inhibition | significant inhibitory effect; also recorded: significant inhibition | – | –
6 | COc1ccccc1-c1cc(Nc2cccc(CS(=O)(=O)CCCN(C)C)c2)ncn1 [Compound 84, [3-(3-Dimethylamino-propane-1-sulfonylmethyl)-phenyl]-[6-(2-methoxy-phenyl)-pyrimidin-4-yl]-amine] | – | – | – | TNFα protein concentration in the blood serum (TNFα): significant repressive effect; IL6 protein concentration in the blood serum (IL6): significant repressive effect
7 | COCCOc1ccccc1-c1cc(Nc2cccc(CS(C)(=O)=O)c2)ncn1 [Compound 57, (3-Methanesulfonylmethyl-phenyl)-{6-[2-(2-methoxy-ethoxy)-phenyl]-pyrimidin-4-yl}-amine] | – | – | 141 to 142.9 | –
8 | CCOc1ccccc1-c1cc(Nc2cccc(CS(=O)(=O)NC3CC3)c2)ncn1 [Compound 18, N-Cyclopropyl-C-{3-[6-(2-ethoxy-phenyl)-pyrimidin-4-ylamino]-phenyl}-methanesulfonamide] | significant inhibitory effect; also recorded: significant inhibition | significant inhibitory effect; also recorded: significant inhibition | – | –
9 | NS(=O)(=O)Cc1cccc(Nc2cc(-c3cccc(C(F)(F)F)c3)ncn2)c1 [Compound 63, {3-[6-(3-Trifluoromethyl-phenyl)-pyrimidin-4-ylamino]-phenyl}-methanesulfonamide] | – | – | 221.5 to 223 | –
10 | CS(=O)(=O)Cc1cccc(Nc2cc(-c3ccccc3OCC3CCCO3)ncn2)c1 (stereo not drawn) [Compound 64, (3-methanesulfonylmethyl-phenyl)-{6-[2-(tetrahydro-furan-2-ylmethoxy)-phenyl]-pyrimidin-4-yl}-amine] | – | – | 160 to 162.6 | –
11 | CC(C)Oc1ccccc1-c1cc(Nc2cccc(CS(N)(=O)=O)c2)ncn1 [Compound 5, {3-[6-(2-Isopropoxy-phenyl)-pyrimidin-4-ylamino]-phenyl}-methanesulfonamide] | – | significant inhibition | – | TNFα protein concentration in the blood serum (TNFα): significant repressive effect; IL6 protein concentration in the blood serum (IL6): significant repressive effect
12 | COc1cc(F)ccc1-c1cc(Nc2cccc(CS(N)(=O)=O)c2)ncn1 [Compound 3, {3-[6-(4-Fluoro-2-methoxy-phenyl)-pyrimidin-4-ylamino]-phenyl}-methanesulfonamide] | significant inhibitory effect; also recorded: significant inhibition | significant inhibitory effect; also recorded: significant inhibition | – | –
13 | COc1ccccc1-c1cc(Nc2cccc(CS(=O)(=O)NC(C)C)c2)ncn1 [Compound 10, N-Isopropyl-C-{3-[6-(2-methoxy-phenyl)-pyrimidin-4-ylamino]-phenyl}-methanesulfonamide] | – | – | – | TNFα protein concentration in the blood serum (TNFα): significant repressive effect; IL6 protein concentration in the blood serum (IL6): significant repressive effect
14 | COc1ccccc1-c1cc(Nc2cccc(CS(N)(=O)=O)c2)nc(N)n1 [Compound 66, {3-[2-amino-6-(2-methoxy-phenyl)-pyrimidin-4-ylamino]-phenyl}-methanesulfonamide] | – | – | 211.7 to 213.1 | –
15 | CNS(=O)(=O)Cc1cccc(Nc2cc(-c3ccccc3COC)ncn2)c1 [Compound 80, C-{3-[6-(2-methoxymethyl-phenyl)-pyrimidin-4-ylamino]-phenyl}-N-methyl-methanesulfonamide] | – | – | 171 to 172 | –
16 | CS(=O)(=O)c1cccc(Nc2cc(-c3ccccc3O)ncn2)c1 [Reference Example 49, 2-[6-(3-methanesulfonyl-phenylamino)-pyrimidin-4-yl]-phenol] | – | – | 214 to 216.1 | –
17 | COCCCNS(=O)(=O)Cc1cccc(Nc2cc(-c3ccccc3OC)ncn2)c1 [Compound 33, C-{3-[6-(2-Methoxy-phenyl)-pyrimidin-4-ylamino]-phenyl}-N-(3-methoxy-propyl)-methanesulfonamide] | – | – | 149.2 to 150.8 | –
18 | COCCOc1ccccc1-c1cc(Nc2cccc(CS(N)(=O)=O)c2)nc(C)n1 [Compound 83, (3-{6-[2-(2-methoxy-ethoxy)-phenyl]-2-methyl-pyrimidin-4-ylamino}-phenyl)-methanesulfonamide] | – | – | 209 to 211.1 | –
19 | NS(=O)(=O)Cc1cccc(Nc2cc(-c3ccccc3OCC3CCCO3)ncn2)c1 (stereo not drawn) [Compound 82, (3-{6-[2-(tetrahydro-furan-2-ylmethoxy)-phenyl]-pyrimidin-4-ylamino}-phenyl)-methanesulfonamide] | – | – | 168.4 to 169.4 | –
20 | COc1ccccc1-c1cc(Nc2cccc(CS(=O)(=O)NC3CCCC3)c2)ncn1 [Compound 16, N-Cyclopentyl-C-{3-[6-(2-methoxy-phenyl)-pyrimidin-4-ylamino]-phenyl}-methanesulfonamide] | significant inhibitory effect; also recorded: significant inhibition | significant inhibitory effect; also recorded: significant inhibition | – | –
